Reference: US7829591B2, “Flavanone compound and uses thereof” (Pokka Corporation, priority 2003, dated 2010)

Tests used:
[1] = DPPH radical scavenging activity test; format: biochemical; settings: for Radical Scavenging Activity (%) from DPPH Radical Scavenging Activity Test: 25 μM sample solution in ethanol, 1 h in dark, absorbance 517 nm, average ± SD of three runs
Protocol: DPPH (α,α-diphenyl-β-picrylhydradil) is a purple stable radical having a maximum absorption at 517 nm, which is converted into colorless hydrazine by gaining hydrogen. This color reaction was utilized so as to determine the radical scavenging activity of each of Compounds 1 to 4 and the like. That is, each of Compounds 1 to 4 was dissolved in ethanol to prepare 3 ml of a sample solution having a concentration of 25 μM. Thereafter, to each of the resultant sample solutions, 0.75 ml of a 0.5 mM DPPH solution (whose solvent was ethanol) was added and stirred, and reacted in a dark place for one hour, followed by the determination of an absorbance at 517 nm. Furthermore, in place of Compounds 1 to 4, BHT (butylated hydroxytoluene), α-tocopherol or eriodictyol was used so as to determine an absorbance according to a similar procedure to the above. Besides, instead of the above sample solutions, ethanol was used as a control so as to determine an absorbance according to a similar procedure to the above. Then the radical scavenging activity (%) of each of the materials was calculated using the following calculation formula 1. Incidentally, each of values shown in Table 1 is the average value and standard deviation of values obtained from three runs. (Radical Scavenging Activity)=[{(Absorbance of Control)−(Absorbance of Sample Solution)}/(Absorbance of Control)]×100 Calculation Formula 1

[2] = tested on: breast cancer cells (MCF-7); experiment: Breast cancer cell proliferation-inhibition test; format: cell-based; settings: for Relative Value of Living Cells: 0.1 nM estradiol, Control 1 at 0 day = 1; for inhibiting effect on the proliferation of breast cancer cells (in words): 20 μM, compared with Control 1
Protocol: When breast cancer cells (MCF-7) are cultured, if estradiol (or 17β-estradiol) having a cell-proliferation accelerating action, is added thereto, the proliferation of breast cancer cells can be simply promoted in a short period. This phenomenon was utilized so as to examine the effect of each of Compounds 1 to 4 and the like on the proliferation inhibition of breast cancer cells. That is, first of all, each of Compounds 1 to 4 was diluted with dimethyl sulfoxide to prepare a sample solution. Thereafter, 2×10^3 of MCF-7 were inoculated in each well of a 96-well plate, and estradiol and the sample solution were added thereto after 4 hours. Estradiol was added to each compartment so that the final concentration of estradiol can be 0.1 nM, and the final concentration of the sample solution can be 0.2 μM, 2 μM, or 20 μM. After incubation for a predetermined period of time (three or five days), each of the media was replaced with a new medium, and an enzyme solution (Cell counting Kit-8: Wako) was added to the new medium in an amount of 10% of the new medium. After maintained the medium in an incubator at a temperature of 37° C. for two hours, the absorbance of the medium was determined at a wavelength of 450 nm (a reference wave length of 630 nm) by means of a spectrophotometer so as to quantify the number of living cells in each compartment.
As for the compartment whose incubation period is predetermined to be five days, on the third day of the incubation, the medium was replaced with a new medium, and thereafter, estradiol and a sample solution were added to the new medium, and the incubation was continued till fifth day. As for the compartment whose incubation period is predetermined to be 0 day, at four hours after the cells were inoculated, an enzyme solution was added to the medium. The medium was maintained in an incubator at a temperature of 37° C. for two hours, followed by determining the absorbance.
Instead of Compounds 1 to 4, eriodictyol was used to determine the absorbance according to a similar procedure to the above-mentioned one, and thus the number of living cells in each compartment was quantified. Furthermore, Control 1 to which neither estradiol nor a sample had been added was used to determine the absorbance according to a similar procedure to the above-mentioned one, and thus the number of living cells in each compartment was quantified, while Control 2 to which no sample had been added was used to determine the absorbance according to a similar procedure to the above-mentioned one, and thus the number of living cells in each compartment was quantified.
When it is assumed that the number of living cells of Control 1 as quantified after a zero-day incubation period is 1, the relative value of living cells as quantified in each of the runs mentioned above is shown in Table 2. Incidentally, each of values shown in Table 2 is the average value and standard deviation of values obtained from eight wells.

[3] = tested on: Salmonella enteritidis (S. en; NBRC3313); experiment: Antimicrobial activity test with Compounds 1 to 4; format: cell-based; settings: for effect on growth and development of S. en (in words): 5-50 ppm
Protocol: (§1) That is, first of all, each of Compounds 1 to 4 was dissolved in 70% ethanol, and thereafter, standard agar media were prepared wherein the concentration of each of Compounds 1 to 4 was adjusted to be 0 ppm, 5 ppm, 10 ppm, 15 ppm, 20 ppm, or 50 ppm. Subsequently, these standard agar media were subjected to autoclave sterilization so as to prepare evaluation media, and each of the biological indicators was inoculated in each of these evaluation media. After the incubation of each of the bacteria, the number of the bacteria per a petri dish (CFU/petri dish) was determined.

[4] = tested on: Staphylococcus aureus (Sta.); experiment: Antimicrobial activity test with Compounds 1 to 4; format: cell-based; settings: for effect on growth and development of Gram-positive bacteria, Sta. (in words): 5-50 ppm
Protocol: as §1

E. coli = experiment: Antimicrobial activity test with Compounds 1 to 4; format: cell-based; settings: for effect on growth and development of E. coli (in words): 5-50 ppm
Protocol: as §1

Bacillus cereus (B. ce) = experiment: Antimicrobial activity test with Compounds 1 to 4; format: cell-based; settings: for effect on growth and development of spore forming bacteria, B. ce (in words): 5-50 ppm
Protocol: as §1

[5] = 0.2 μM sample, after 3-days incubation
[6] = 0.2 μM sample, after 5-days incubation
[7] = 0.2 μM sample, on 0-day incubation, mean ± SD of eight wells
[8] = 2 μM sample, after 3-days incubation
[9] = 2 μM sample, after 5-days incubation
[10] = 2 μM sample, on 0-day incubation
[11] = 20 μM sample, after 3-days incubation
[12] = 20 μM sample, after 5-days incubation
[13] = 20 μM sample, on 0-day incubation
[14] = 5 ppm in standard agar medium, 0 ppm: >3000 (Table 3), 221 (Table 4)
[15] = 5 ppm in standard agar medium, 0 ppm: 470 (Table 3), 202 (Table 4)
[16] = 5 ppm in standard agar medium, 0 ppm: >3000 (Table 3), 5 (Table 4)
[17] = 5 ppm in standard agar medium, 0 ppm: 13 (Table 3), 183 (Table 4)

In the case of `CC(C)=CCC/C(C)=C/Cc1c(O)cc2c(c1O)C(=O)C[C@@H](c1ccc(O)c(O)c1)O2` [Compound 3, 5,7,3′,4′-tetrahydroxy-6-C-geranylflavanone], the “Radical Scavenging Activity (%) from DPPH Radical Scavenging Activity Test” value [1] is reported as 64.00 ± 0.58%, the “radical scavenging activity (in words)” value ([1]; comparison from Table 1) is reported as “highest radical scavenging activity” and the “Relative Value of Living Cells” value [2, 5] is reported as 2.94 ± 0.20. The “Relative Value of Living Cells” value [2, 6] was 6.99 ± 0.66, the “Relative Value of Living Cells” value [2, 7] was 0.99 ± 0.05 and the “Relative Value of Living Cells” value [2, 8] was 2.53 ± 0.30. The “Relative Value of Living Cells” value [2, 9] was 5.38 ± 0.44, the “Relative Value of Living Cells” value [2, 10] was 1.01 ± 0.05 and the “Relative Value of Living Cells” value [2, 11] was 1.21 ± 0.22. The “Relative Value of Living Cells” value [2, 12] was 0.89 ± 0.12, the “Relative Value of Living Cells” value [2, 13] was 0.96 ± 0.04 and the “inhibiting effect on the proliferation of breast cancer cells (in words)” value [2] was “cytotoxic effect upon breast cancer cells”. The “effect on growth and development of S. en (in words)” value [3] was “antimicrobial activity”, the “Number of Bacteria, S. en” value [3, 14] was 296 CFU/petri dish and the “Number of Bacteria, S. en” value ([3]; 10 ppm in standard agar medium) was 207 CFU/petri dish. The “Number of Bacteria, S. en” value ([3]; 15 ppm in standard agar medium) was 116 CFU/petri dish, the “Number of Bacteria, S. en” value ([3]; 20 ppm in standard agar medium) was 143 CFU/petri dish and the “Number of Bacteria, S. en” value ([3]; 50 ppm in standard agar medium) was 43 CFU/petri dish. The “effect on growth and development of Gram-positive bacteria, Sta. (in words)” value [4] was “high antimicrobial activity”, the “Number of Bacteria, Sta.” value [4, 15] was 22 CFU/petri dish and the “Number of Bacteria, Sta.” value ([4]; 10 ppm in standard agar medium) was 0 CFU/petri dish. For the same compound, the “Number of Bacteria, Sta.” value ([4]; 15 ppm in standard agar medium) was 0 CFU/petri dish, the “Number of Bacteria, Sta.” value ([4]; 20 ppm in standard agar medium) was 0 CFU/petri dish and the “Number of Bacteria, Sta.” value ([4]; 50 ppm in standard agar medium) was 0 CFU/petri dish. The “effect on growth and development of E. coli (in words)” value (E. coli) was “high antimicrobial activity”, the “Number of Bacteria, E. coli” value (E. coli; [16]) was 3 CFU/petri dish and the “Number of Bacteria, E. coli” value (E. coli; 10 ppm in standard agar medium) was 1 CFU/petri dish. For the same compound, the “Number of Bacteria, E. coli” value (E. coli; 15 ppm in standard agar medium) was 0 CFU/petri dish, the “Number of Bacteria, E. coli” value (E. coli; 20 ppm in standard agar medium) was 0 CFU/petri dish and the “Number of Bacteria, E. coli” value (E. coli; 50 ppm in standard agar medium) was 0 CFU/petri dish. For the same compound, the “effect on growth and development of spore forming bacteria, B. ce (in words)” value (Bacillus cereus (B. ce)) was “high antimicrobial activity”, the “Number of Bacteria, B. ce” value (Bacillus cereus (B. ce); [17]) was 4 CFU/petri dish and the “Number of Bacteria, B. ce” value (Bacillus cereus (B. ce); 10 ppm in standard agar medium) was 0 CFU/petri dish. For the same compound, the “Number of Bacteria, B. ce” value (Bacillus cereus (B. ce); 15 ppm in standard agar medium) was 0 CFU/petri dish, the “Number of Bacteria, B. ce” value (Bacillus cereus (B. ce); 20 ppm in standard agar medium) was 0 CFU/petri dish and the “Number of Bacteria, B. ce” value (Bacillus cereus (B. ce); 50 ppm in standard agar medium) was 0 CFU/petri dish.

For `CC(C)=CCC/C(C)=C/Cc1c([C@@H]2CC(=O)c3c(cc(O)c(CC=C(C)C)c3O)O2)ccc(O)c1O` [Compound 4, 5,7,3′,4′-tetrahydroxy-6-(3′″,3′″-dimethylallyl)-2′-C-geranylflavanone], the “Radical Scavenging Activity (%) from DPPH Radical Scavenging Activity Test” value [1] was 50.79 ± 0.08%, the “Relative Value of Living Cells” value [2, 5] was 2.97 ± 0.27 and the “Relative Value of Living Cells” value [2, 6] was 6.30 ± 0.54. The “Relative Value of Living Cells” value [2, 7] was 0.99 ± 0.04, the “Relative Value of Living Cells” value [2, 8] was 3.03 ± 0.30 and the “Relative Value of Living Cells” value [2, 9] was 6.41 ± 0.53. For the same compound, the “Relative Value of Living Cells” value [2, 10] was 1.00 ± 0.07, the “Relative Value of Living Cells” value [2, 11] was 1.27 ± 0.20 and the “Relative Value of Living Cells” value [2, 12] was 1.01 ± 0.12. The “Relative Value of Living Cells” value [2, 13] was 0.98 ± 0.04, the “inhibiting effect on the proliferation of breast cancer cells (in words)” value [2] was “cytotoxic effect upon breast cancer cells” and the “effect on growth and development of S. en (in words)” value [3] was “antimicrobial activity”. For the same compound, the “Number of Bacteria, S. en” value [3, 14] was 249 CFU/petri dish, the “Number of Bacteria, S. en” value ([3]; 10 ppm in standard agar medium) was 199 CFU/petri dish and the “Number of Bacteria, S. en” value ([3]; 15 ppm in standard agar medium) was 225 CFU/petri dish. For the same compound, the “Number of Bacteria, S. en” value ([3]; 20 ppm in standard agar medium) was 132 CFU/petri dish, the “Number of Bacteria, S. en” value ([3]; 50 ppm in standard agar medium) was 65 CFU/petri dish and the “effect on growth and development of Gram-positive bacteria, Sta. (in words)” value [4] was “high antimicrobial activity”. The “Number of Bacteria, Sta.” value [4, 15] was 26 CFU/petri dish, the “Number of Bacteria, Sta.” value ([4]; 10 ppm in standard agar medium) was 7 CFU/petri dish and the “Number of Bacteria, Sta.” value ([4]; 15 ppm in standard agar medium) was 10 CFU/petri dish. For the same compound, the “Number of Bacteria, Sta.” value ([4]; 20 ppm in standard agar medium) was 1 CFU/petri dish, the “Number of Bacteria, Sta.” value ([4]; 50 ppm in standard agar medium) was 0 CFU/petri dish and the “effect on growth and development of E. coli (in words)” value (E. coli) was “high antimicrobial activity”. The “Number of Bacteria, E. coli” value (E. coli; [16]) was 6 CFU/petri dish, the “Number of Bacteria, E. coli” value (E. coli; 10 ppm in standard agar medium) was 6 CFU/petri dish and the “Number of Bacteria, E. coli” value (E. coli; 15 ppm in standard agar medium) was 9 CFU/petri dish. The “Number of Bacteria, E. coli” value (E. coli; 20 ppm in standard agar medium) was 6 CFU/petri dish, the “Number of Bacteria, E. coli” value (E. coli; 50 ppm in standard agar medium) was 0 CFU/petri dish and the “effect on growth and development of spore forming bacteria, B. ce (in words)” value (Bacillus cereus (B. ce)) was “high antimicrobial activity”. For the same compound, the “Number of Bacteria, B. ce” value (Bacillus cereus (B. ce); [17]) was 16 CFU/petri dish, the “Number of Bacteria, B. ce” value (Bacillus cereus (B. ce); 10 ppm in standard agar medium) was 0 CFU/petri dish and the “Number of Bacteria, B. ce” value (Bacillus cereus (B. ce); 15 ppm in standard agar medium) was 0 CFU/petri dish. The “Number of Bacteria, B. ce” value (Bacillus cereus (B. ce); 20 ppm in standard agar medium) was 0 CFU/petri dish and the “Number of Bacteria, B. ce” value (Bacillus cereus (B. ce); 50 ppm in standard agar medium) was 0 CFU/petri dish.
